Results: paper PMC5532363, “Synergistic blending of high-valued heterocycles inhibits growth of Plasmodium falciparum in culture and P. berghei infection in mouse model” (Scientific Reports, 2017)
Like-named read-outs stand apart in the source and are kept apart here.

What was measured:
CQ resistant PfW2 strain = experiment: SYBR Green I growth inhibition assay, P. falciparum W2 culture; format: cell-based; conditions: Plasmodium falciparum
Description: (§1) Antimalarial activity of all the listed Pht analogues was initially assessed on asynchronous cultures of P. falciparum 3D7 (Pf3D7) clone using the SYBR Green assay. […] The mean IC50 values are based on three separate experiments (Table 1).
The laboratory-adapted P. falciparum strains 3D7 (Africa; CQ sensitive) and W2 (Africa; CQ resistant), were acquired from Malaria Research and Reference Reagent Resource Center (MR4) (Manassas, VA, USA) and maintained with type O +ve erythrocytes suspended in continuous complete culture medium as described. Complete culture media consisted of 10.43 g/litre of RPMI 1640-HEPES supplemented with 10% (vol/vol) human AB serum, 92.6 mg/litre L-glutamine, 50 mg/liter hypoxanthine, 2 g/litre sodium bicarbonate (Sigma-Aldrich, St. Louis, MO). Incubation of cultures was at 37 °C and maintained in a low oxygen atmosphere (5% O2, 5% CO2, 90% N). The levels of parasitemia in the cultures were maintained at between 2 and 10%, with 5% hematocrit. Media was changed after every 24 hours and parasitemia monitored every 48 hours. Synchronous cultures were prepared by sorbitol lysis. Stock solutions of the Pht, Pht analogues, and DHA were prepared in absolute dimethyl sulfoxide (DMSO) while CQ was prepared in distilled water. The prepared drug stock solutions were used immediately or stored at −80 °C for not longer than one month before use. Stock solutions were further diluted in serum free RPMI 1640 media (stock solution solvent final conc. 0.05%) before performing a 2-fold serial dilution to achieve dose ranges of 0.2 µM to 100 µM (Pht and derivatives), 7.8 to 2,000 nM (CQ) and 0.17 to 87.5 nM (DHA). 25 μL of the drug diluents were aliquoted into 96 well plates and used immediately. Alternatively, the stock solutions were diluted in distilled water, 2-fold serial dilution performed on a 96 well plate and allowed to air dry in a laminar flow hood after which dried plates were stored at 4 °C until use. SYBR Green I assay technique with additional modification was used for drug susceptibility testing of the parasites. Parasite cultures of >1% parasitemia were diluted to 1% parasitemia and 2% hematocrit and 200 μL were transferred onto drug pre-dosed plates and incubated at 37 °C for 90 hours, [40]. […] Relative fluorescence units (RFU) were read using the Perkin Elmer Wallac 1420 fluorescence plate reader, with excitation and emission wavelengths of 485 nm and 535 nm respectively. The readouts values were aligned with corresponding drug doses and analysis performed by Graph-pad Prism software. The drug concentrations (x value) were transformed using X = Log[X] and plotted against the counts (y values) and the data analysed by non-linear regression (sigmoid dose-response/variable slope equation) to yield the IC50.

[1] = tested on: synchronized Pf3D7 strain cultures (rings, trophozoites); experiment: Stage-specificity and parasitemia titres on synchronized Pf3D7 cultures (Giemsa smears); format: cell-based, Plasmodium falciparum; conditions: for effect on ring stage parasitemia: 6 hours post exposure of ring stages; for effect on ring stage parasitemia / effect on mature blood stage parasite titres (parasitemia): Fig. 5; for effect on mature blood stage parasite titres (parasitemia): 16 hours after incubation with trophozoite stage; for effect on progression from trophozoites to schizonts / schizont morphology: concentration = individual IC50, up to 16 hours exposure; for effect on ring-stage growth and morphology: newly synchronized rings, concentration = individual IC50, monitored at 6 and 12 hours
Description: Next, we sought to determine stage-specificity of the antiplasmodial activity of the four active analogues (6a, 6h, 6m and 6u) on synchronized Pf3D7 strain cultures at 2% hematocrit and 1% parasitemia, with concentrations corresponding to individual drug IC50. To determine the effect of the compounds on both early and late ring stage parasites, the treatment was conducted on newly synchronized rings for 12 hours, and drug effect on parasite growth and morphology was monitored at 6 and 12 hours after exposure. Similarly, early trophozoites were exposed to each compound and incubated for 16 hours, and monitored at 6 and 16 hours post-exposure. The effect of the compounds on parasite morphology and development was compared in exposed and unexposed drug wells (Figs 3 and 4).
Figure 5 Effect of Pht analogues on parasite growth titres (Note: Graphical description of the inhibitory effect of select analogues on parasite growth titres 6 hours after incubation with ring-stages and 16 hours after drug incubation with trophozoite stage. Parasitemia percentage was derived by counting the number of infected erythrocytes from a total of 2,000 erythrocytes on Giemsa stained thin smears from each experiment. Bar diagrams represent the average of three different experiments).

[2] = tested on: P. falciparum 3D7 (Pf3D7), CQ sensitive; experiment: SYBR Green I growth inhibition assay, asynchronous P. falciparum 3D7 culture; format: cell-based, Plasmodium falciparum; conditions: SYBR Green, mean of three experiments, NDR / No IC50 = no dose response
Description: as §1
The laboratory-adapted P. falciparum strains 3D7 (Africa; CQ sensitive) and W2 (Africa; CQ resistant), were acquired from Malaria Research and Reference Reagent Resource Center (MR4) (Manassas, VA, USA) and maintained with type O +ve erythrocytes suspended in continuous complete culture medium as described. Complete culture media consisted of 10.43 g/litre of RPMI 1640-HEPES supplemented with 10% (vol/vol) human AB serum, 92.6 mg/litre L-glutamine, 50 mg/liter hypoxanthine, 2 g/litre sodium bicarbonate (Sigma-Aldrich, St. Louis, MO). Incubation of cultures was at 37 °C and maintained in a low oxygen atmosphere (5% O2, 5% CO2, 90% N). The levels of parasitemia in the cultures were maintained at between 2 and 10%, with 5% hematocrit. Media was changed after every 24 hours and parasitemia monitored every 48 hours. Synchronous cultures were prepared by sorbitol lysis. Stock solutions of the Pht, Pht analogues, and DHA were prepared in absolute dimethyl sulfoxide (DMSO) while CQ was prepared in distilled water. The prepared drug stock solutions were used immediately or stored at −80 °C for not longer than one month before use. Stock solutions were further diluted in serum free RPMI 1640 media (stock solution solvent final conc. 0.05%) before performing a 2-fold serial dilution to achieve dose ranges of 0.2 µM to 100 µM (Pht and derivatives), 7.8 to 2,000 nM (CQ) and 0.17 to 87.5 nM (DHA). 25 μL of the drug diluents were aliquoted into 96 well plates and used immediately. Alternatively, the stock solutions were diluted in distilled water, 2-fold serial dilution performed on a 96 well plate and allowed to air dry in a laminar flow hood after which dried plates were stored at 4 °C until use. SYBR Green I assay technique with additional modification was used for drug susceptibility testing of the parasites. Parasite cultures of >1% parasitemia were diluted to 1% parasitemia and 2% hematocrit and 200 μL were transferred onto drug pre-dosed plates and incubated at 37 °C for 90 hours, [40]. Drug exposure was terminated by freezing the drug plates at −80 °C for 24 hours after which lysis buffer containing (per liter) 100 mM Tris-HCl, 10 mM EDTA, 0.016% Saponin, 1.6% triton X-100 and 20X SYBR Green I dye was added and the sample incubated for 2 hours in the dark. Relative fluorescence units (RFU) were read using the Perkin Elmer Wallac 1420 fluorescence plate reader, with excitation and emission wavelengths of 485 nm and 535 nm respectively. The readouts values were aligned with corresponding drug doses and analysis performed by Graph-pad Prism software. The drug concentrations (x value) were transformed using X = Log[X] and plotted against the counts (y values) and the data analysed by non-linear regression (sigmoid dose-response/variable slope equation) to yield the IC50.

[3] = Pf3D7, asynchronous culture, read-out: IC50 (SE) µM
[4] = Plasmodium falciparum, 3D7, Pf3D7, asynchronous culture, read-out: IC50 (SE) µg/mL

| Structure (SMILES) | IC50 (CQ resistant PfW2 strain) | effect on ring stage parasitemia [1] | effect on mature blood stage parasite titres (parasitemia) [1] | effect on progression from trophozoites to schizonts / schizont morphology ([1]; early trophozoites) | effect on ring-stage growth and morphology [1] | IC50 ([2]; Pf3D7, asynchronous culture, listed as 6 u, read-out: IC50 (SE) µM) | IC50 [2, 3] | IC50 [2, 4] | effect on trophozoites ([1]; early trophozoites, concentration = individual IC50, 6 hours after exposure) | IC50 ([2]; Pf3D7, asynchronous culture, listed as 6 h, read-out: IC50 (SE) µM) |
| --- | --- | --- | --- | --- | --- | --- | --- | --- | --- | --- |
| CC(C)C[C@H](c1nc2ccccc2n1Cc1c[nH]nn1)N1C(=O)c2ccccc2C1=O [Compound 6u] | 900 nM | reduction in ring stage parasitemia | negligible | did not interfere with development of parasite progression from trophozoites to schizonts | active against ring-stage forms | < 5.14 µM | 0.7 µM | 0.3 µg/mL |  |  |
| CC[C@@H](C)[C@H](c1nc2ccccc2n1Cc1cn(-c2ccc(F)cc2)nn1)N1C(=O)c2ccccc2C1=O [Compound 6h] | 1300 nM | did not affect parasite growth | reduction in parasitemia | presence of schizonts with abnormal morphology | did not arrest ring-stage maturation |  | 0.9 µM | 0.7 µg/mL | complete destruction of trophozoites | < 5.14 µM |
